We go through 89 compounds from a melting point compilation (Tetko et al.; mined from patent text by program, amines drawn as free bases though some values may be those of a salt).

A value given as a limit tells only on which side of the number the result lay.

For orientation: melting point means the temperature of the solid-liquid transition. For the compound `OC(Cc1nnn[nH]1)(Cn1cncn1)c1ccc(Cl)cc1Cl` (centres undefined), the melting point is 214 to 215 °C.
The compound `O=C(N[C@@H](Cc1ccc(Cl)cc1)C(=O)N1CCC(O)CC1)c1cc2cc(Cl)ccc2[nH]1` gave a melting point of 227 to 229 °C.
In the case of `CC(=Cc1ccc([N+](=O)[O-])cc1)C(=O)Oc1ccc(Cl)cc1` it was 111 to 112 °C; in that of `ON=C(c1ccncc1)c1ccc(F)cc1F`, 155 to 200 °C; in that of `CSc1ccc2c3c(cccc13)C(=O)N2CCCC#N`, 120 to 122 °C.
In the case of `OCCCCn1ccc(NC(=S)Nc2ccccc2)n1`, the melting point fell in the range of 112 to 117 °C.
`CCCN(C(=O)COc1c(OC)cccc1OC)C1CCc2c(ccc(O)c2O)C1` (centres undefined) returned a melting point of 157 to 158 °C.
`CCS(=O)(=O)Nc1cc(-c2ncnc(Cl)c2Cl)c(F)cc1C#N` came in with a melting point of 149 to 150 °C.
Consider `CC(C)NC(=O)c1ccccc1`, for which the melting point lay in the range of 101 to 103 °C.
`COc1ccc(CCCC(O)COc2ccc(OCc3ncc[nH]3)cc2)cc1OC` (centres undefined) came in with a melting point of 129 to 130 °C.
In the case of `CC(C)(C)OC(=O)NC1CCCC(NC(=O)c2ccc(-c3[nH]nc4c3C(=O)c3c(NC(=O)NN5CCOCC5)cccc3-4)s2)C1` (centres undefined) it was over 300 °C; in that of `Cc1cccc(C2CCCCS2=O)n1` (centres undefined), 100 °C.
The figure for `CC1(C)OCC(C(O)CNC(=O)c2cc(C(=O)NCC(O)C3COC(C)(C)O3)cc(S(=O)(=O)Nc3ccc(F)c(C(F)(F)F)c3)c2)O1` (centres undefined) is 217 to 218 °C; for `CCCCCc1ccc(NC2=NCCS2)cc1` it is 77 to 78 °C.
As for `CN(C(=O)OC(C)(C)C)c1cc(Oc2ccc(Oc3ccccc3)cc2)ccc1N`, the melting point fell in the range of 105 to 106 °C.
In the case of `CC1(C)O[C@H](CC#N)C[C@H](CC(=O)N(c2ccccc2)c2ccccc2)O1` it was 98 to 100 °C.
The compound `COc1cc(C)nc(NC(=O)NS(=O)(=O)c2ccccc2N=NN(C)C)n1` had a melting point of 158 to 160 °C.
In the case of `CCn1cc(C(=O)O)c(=O)c2cc(F)c(N3CCN(C)C(COc4ccccc4)C3)cc21` (centres undefined), the melting point lay in the range of 202 to 204 °C.
In the case of `N#Cc1nn(-c2ccc(C=O)cc2)nc1-c1ccccc1` it was 111 to 115 °C.
In the case of `Cc1nc2c(OCc3c(Cl)ccc(N(C)C(=O)CNC(=O)CN4C(=O)c5ccccc5C4=O)c3Cl)cccn2c1Br`, the melting point is 148 to 150 °C.
The figure for `Cc1oc(-c2ccccc2)nc1CCOc1ccc(CO)cc1` is 110 to 113 °C; for `CCCCc1c2c(nn1C)c(N)nc1ccccc12` it is 202 to 203 °C; for `CNC(=O)COC1C(O)C(CO)OC(Oc2ccc(N)cc2)C1O` (centres undefined) it is 239 °C.
Turning to `Cc1cccc(NC(=O)c2cc(=O)[nH]c3ccc(C(=O)c4ccc(Cl)cc4)cc23)c1`, the melting point is 230 °C.
For `CC(=S)N(C)Cc1ccc(F)cc1`, the melting point fell in the range of 99 to 104 °C.
Take `CCCCCCCCCCOC(=O)C1CCC(=O)N1` (centres undefined): the melting point fell in the range of 34 to 35 °C.
The figure for `CN(C1CCN(Cc2ccccn2)CC1)S(=O)(=O)c1ccc(Nc2nccc(Nc3ccc(F)cc3)n2)cc1` is 202 to 204 °C; for `COc1ccc(/C=C/c2ccncc2)c2c1OC(C)(C)C2` it is 110 to 113 °C.
In the case of `CCc1[nH]cnc1-c1cc(C(C)(C)C)c(O)c(C(C)(C)C)c1` it was 200 to 201 °C.
Turning to `CC1CN(c2ccc(S(N)(=O)=O)cc2)CC(C)N1CCC1OCCc2ccccc21` (centres undefined), the melting point lay within 170 to 175 °C.
Turning to `CC(C)(C)OC(=O)NC(CF)C(F)CN1C(=O)c2ccccc2C1=O` (centres undefined), the melting point is 152 to 153 °C.
The compound `O=c1[nH]ncc2[nH]c(-c3ccc(OC(F)F)c(OC4CC4)c3)c(-c3ccccc3)c12` returned a melting point of 138 to 143 °C.
The figure for `Clc1cc2nc3c4ccccc4c4ccccc4c3nc2cc1Cl` is 263 to 264 °C; for `CNC(=O)N1CCSC1c1ccccc1OCCN1CCN(c2ccccc2)CC1` (centres undefined) it is 133 to 135 °C; for `Cc1cc(C)c2ccc(N)nc2n1` it is 215 to 220 °C.
In turn, `COC1CCC2(C)C(=CCC3C4CCC(=O)C4(C)CCC32)C1` (centres undefined) yielded a melting point of 133 to 135 °C.
The figure for `Cn1c2ccc(Br)cc2c2cc(C(=O)N3CCOCC3)sc21` is 184 °C.
In the case of `CNc1nn(-c2ccccc2)cc1C=O` it was 83 to 84 °C.
Take `Clc1ccc(CN2CCN(CCN3CCCCC3)CC2c2ccccc2)cc1` (centres undefined): the melting point was in the range of 85 to 87 °C.
Compound `O=C1N=C(N2CCOCC2)SC1=Cc1cccc(-c2ccc(O)c(F)c2)c1` gave a melting point of 233 to 235 °C.
Consider `Cc1ncn(Nc2cccc(Cl)c2)c1-c1cccc(Cl)c1`, for which the melting point was determined as 168 °C.
The compound `COc1ccc(N(C)CC(=O)O)c(C(=O)O)c1` showed a melting point of 196 °C.
`Cn1cncc1C(O)(c1ccc2ncccc2c1)c1ccc2nc(Cl)nc(-c3cccc(Cl)c3)c2c1` (centres undefined) gave a melting point of 250 °C.
`CCCSc1ncnc2c1ncn2C1CC(F)C(CO)O1` (centres undefined) gave a melting point of 85 to 86 °C.
`CC1CC2=CC(=O)CCC2C2CCC3(C)C(C(F)F)CCC3C12` (centres undefined) showed a melting point of 131 to 135 °C.
In the case of `CS(=O)(=O)OCCCCCCNc1ccc2nncn2n1` it was 103 to 105 °C; in that of `O=C(N[C@H]1CCN(C(=O)c2cc(C(F)(F)F)cc(C(F)(F)F)c2)[C@H](Cc2ccc(Cl)cc2)C1)c1cc(O)nc2ccccc12`, 222 to 224 °C.
As to `CCCCCC[C@@H](F)COc1cnc(-c2ccc(CCCCC)c(F)c2F)nc1`, the melting point came to 74.7 °C.
In the case of `O=C(O)COCOc1cc(Cl)cc(Cl)c1` it was 79 to 82 °C; in that of `COC(=O)C1Cc2c([nH]c3ccccc23)C(c2ccccc2)N1` (centres undefined), 217 to 218 °C.
The figure for `CS(=O)(=O)Nc1cccc2c1CCC[C@H]2c1c[nH]cn1` is 118 to 123 °C; for `Cc1nc2cc(NC(=O)c3cc4cc(F)ncc4n3Cc3cccc(F)c3)ccc2n1C` it is 245 to 247 °C.
`COc1ccc(N2CCC(=O)N(c3ccc(C)cc3)CC2)c(-c2ccc(N(C)C)cc2)n1` came in with a melting point of 174 to 175 °C.
For `Cc1ccc(-c2nc(CN3CCN(C(c4ccccc4)c4ccccc4)CC3)c(C)[nH]2)cc1`, the melting point worked out at 238 °C.
With `COc1ccc2c(c1)c(-c1cc3c(-c4cccnc4)ccnc3[nH]1)cn2C`, the melting point is 248 to 249 °C.
The compound `COc1cc2c(Nc3ccc(C)c(OC(C)=O)c3)ncnc2cc1OCc1cccnc1` had a melting point of 113 to 115 °C.
For `O=C(Nc1ccc(Oc2ccc(Cl)cc2)cc1)Nc1nonc1-c1ccccc1`, the melting point amounted to 195 °C.
As for `CCOC(=O)c1c(-c2ccccc2C)c2cc(C)c(Cl)cc2n(C)c1=O`, the melting point was 121 to 123 °C.
The compound `CCOC(=O)N1CCC(c2ccc(COc3ccc(S(C)(=O)=O)cc3)nc2)CC1` came in with a melting point of 119 to 121 °C.
The compound `COC(=O)Nc1ccc(C2=NNC(=O)CC2C)cc1` (centres undefined) displayed a melting point of 228 to 229 °C.
In the case of `C=CCOc1ccc(-c2ccc(C#N)cc2)cc1` it was 68 to 69 °C.
The compound `CN(C)c1cc(C(OC(=O)C(Cl)(Cl)Cl)c2ccccc2)c([N+](=O)[O-])cc1[N+](=O)[O-]` (centres undefined) came in with a melting point of 91 to 92 °C.
In turn, `CCCC(C)S(=O)(=O)Nc1ccc(C(=O)CN2CCN(c3ccncc3)CC2)cc1` (centres undefined) gave a melting point of 101 to 103 °C.
Take `O=C(O)C1CCCn2c(=O)n(CS)c(=O)n21` (centres undefined): the melting point is 158 °C.
In turn, `CCCSC1(C(F)(F)F)C=NC(=O)Nc2ccc(Cl)cc21` (centres undefined) returned a melting point of 156 to 157 °C.
The figure for `c1cnc(-c2n[nH]c(-c3cnccn3)n2)cn1` is 269 to 270 °C; for `CC(=O)c1cc2nc(SCc3nccc4c3OCO4)[nH]c2cc1C` it is 141 to 143 °C; for `CNC(=O)c1c(-c2ccccc2)noc1CC(O)c1ccccc1` (centres undefined) it is 183 to 184 °C.
The compound `O=C1c2ccccc2C(=O)N1CC#CC1=CCN=C(c2ccccc2F)c2cc(Cl)ccc21` came in with a melting point of 164 to 165 °C.
For `Nc1nc(N)c(-c2cc(Cl)cc(Cl)c2Cl)c(CF)n1`, the melting point lay within 215 to 217 °C.
Compound `COc1ccc(-n2nnnc2C(F)(F)F)cc1[C@H]1CO[C@]2(CCCN(Cc3nc(=O)[nH][nH]3)[C@H]2c2ccccc2)C1` returned a melting point of 186 to 187 °C.
`COc1ccc(C=CC(=O)O)cc1-c1cc2c(cc1OCc1cccc(O)c1)C(C)(C)CCC2(C)C` yielded a melting point of 131 to 133 °C.
`CC(C)C(=O)Nc1ccc(OCC(O)CNC(C)(C)C)c(C#N)c1` (centres undefined) returned a melting point of 118 to 121 °C.
Turning to `CC(C)(C)OC(=O)N[C@H](CO)C(=O)OC(c1ccccc1)c1ccccc1`, the melting point was in the range of 116 to 117 °C.
Regarding `S=C1N=c2cc(Cl)c(Cl)cc2=N1`, the melting point lay within 328 to 330 °C.
`COC(=O)c1cc(-c2ccc3c(c2)CCO3)n[nH]c1=O` displayed a melting point of 192 to 200 °C.
With `Cc1nn(C)c(C(N)=O)c1[N+](=O)[O-]`, the melting point lay in the range of 153 to 155 °C.
On to `N#Cc1ccc(NC(=O)c2ccc(C=O)cc2)cc1`, for which the melting point was found to be 236 °C.
`COC(=O)c1cc2c([nH]c3ccc(Br)cc32)s1` showed a melting point of 216 to 218 °C.
Compound `CCCOc1ccccc1-c1cc(C)c(C(=O)OC)c(=O)[nH]1` had a melting point of 167 to 169 °C.
In the case of `COc1cc(CNc2c(NC(C)(C)C)c(=O)c2=O)cc(OC)c1` it was 222 to 223 °C.
For the compound `CS(=O)(=O)Nc1cc([C@@H](O)CNC2CCN(c3ccc(S(=O)(=O)N4CCC[C@@H]4C(=O)OCc4ccccc4)cc3)CC2)ccc1O`, the melting point lay within 62 to 69 °C.
Regarding `CC(=O)c1ccc(N2CCN(C)CC2)cc1`, the melting point lay in the range of 97 to 99 °C.
In the case of `CS(=O)(=O)OCCCC1Oc2cc3c(cc2NC1=O)CCCC3` (centres undefined) it was 153 to 154 °C.
The figure for `O=C(Nc1ccc(Oc2ccnc(NC3CC3)n2)c2ccccc12)c1cc(F)cc(N2CCOCC2)c1` is 118 to 120 °C.
Turning to `CCN1Cc2ccccc2P1(=O)c1ccccc1` (centres undefined), the melting point was 94 to 95 °C.
With `Nc1c(C(=O)c2cc(Cl)ccn2)[nH]c2cc(Cl)ccc12`, the melting point was 234 to 235 °C.
Compound `O=C(c1cc(=O)c2cc(O)ccc2[nH]1)N1CCC(COc2ccccc2)CC1` displayed a melting point of 130 °C.
`COCC1CN(C(=O)c2cc(OC)c(OC)c(OC)c2)CCN1C(=O)C1=Cc2cc(OC)c(OC)cc2CCC1` (centres undefined) yielded a melting point of 137 °C.
